Source: ChEMBL document CHEMBL3286182, “4-aminoquinolone piperidine amides: noncovalent inhibitors of DprE1 with long residence time and potent antimycobacterial activity” (J Med Chem, 2014)
Values after ≈ are worked out from the molar mass of the structure shown.

Tests used:
Type in all cases: functional
[1] = system: Mycobacterium tuberculosis; assay: Antimycobacterial activity against BTZ043-resistant Mycobacterium tuberculosis over expressing DprE1 C387S mutant after 5 days by standard microdilution method
[2] = system: Mycobacterium tuberculosis; assay: Antimycobacterial activity against moxifloxacin-resistant Mycobacterium tuberculosis clone 4.1 over expressing DprE1 mutant after 5 days by standard microdilution method
[3] = system: Mycobacterium tuberculosis; assay: Antimycobacterial activity against TMC207R-resistant Mycobacterium tuberculosis clone 8.1 over expressing DprE1 mutant after 5 days by standard microdilution method
[4] = system: Mycobacterium tuberculosis; assay: Antimycobacterial activity against Mycobacterium tuberculosis over expressing DprE1 Y314H mutant after 5 days by standard microdilution method

`COc1nc2ccc(Br)cc2cc1[C@@H](c1ccccc1)[C@@](O)(CCN(C)C)c1cccc2ccccc12` [BEDAQUILINE] was tested, and the MIC [1] was 0.4 µM (≈ 0.222 µg/mL), the MIC [2] was 1.6 µM (≈ 0.889 µg/mL) and the MIC [3] was 50 µM (≈ 27.8 µg/mL).

`C[C@H]1COC2(CCN(c3nc(=O)c4cc(C(F)(F)F)cc([N+](=O)[O-])c4s3)CC2)O1` [BTZ-043] gave an MIC [1] of 25 µM (≈ 10.8 µg/mL), an MIC [2] of 0.003 µM (≈ 0.00129 µg/mL) and an MIC [3] of 0.002 µM (≈ 0.000863 µg/mL).

For `C[C@H]1C[C@H](Nc2cc(=O)[nH]c3cc(F)c(F)cc23)CCN1C(=O)c1cnn(C)c1Cl`, the MIC [4] was 0.78 µM (≈ 0.34 µg/mL) and the MIC [1] was 6.25 µM (≈ 2.72 µg/mL).

For `Cn1ncc(C(=O)N2CCC(Nc3cc(=O)[nH]c4ccccc34)CC2)c1Cl`, the MIC [4] was 100 µM (≈ 38.6 µg/mL), the MIC [1] was 100 µM (≈ 38.6 µg/mL) and the MIC [2] was 1.6 µM (≈ 0.617 µg/mL). The MIC [3] was 3.1 µM (≈ 1.2 µg/mL).

Compound `Cn1ncc(C(=O)N2CCC(Nc3cc(=O)[nH]c4ccc(F)cc34)CC2)c1Cl` has an MIC [4] of 25 µM (≈ 10.1 µg/mL), an MIC [1] of 25 µM (≈ 10.1 µg/mL) and an MIC [2] of 1.6 µM (≈ 0.646 µg/mL). The MIC [3] was 1.6 µM (≈ 0.646 µg/mL).

`COc1c(N2C[C@@H]3CCCN[C@@H]3C2)c(F)cc2c(=O)c(C(=O)O)cn(C3CC3)c12` [MOXIFLOXACIN] gave an MIC [1] of 0.08 µM (≈ 0.0321 µg/mL).

`Cn1ncc(C(=O)N2CCC(Nc3cc(=O)[nH]c4cc(F)c(F)cc34)CC2)c1Cl` was tested, and the MIC [4] was 50 µM (≈ 21.1 µg/mL), the MIC [1] was 3.12 µM (≈ 1.32 µg/mL) and the MIC [2] was 0.2 µM (≈ 0.0844 µg/mL). The MIC [3] was 0.2 µM (≈ 0.0844 µg/mL).

`Cn1ncc(C(=O)N2[C@@H]3CC[C@H]2C[C@@H](Nc2cc(=O)[nH]c4ccc(F)cc24)C3)c1Cl` was tested, and the MIC [4] was under 0.39 µM and the MIC [1] was 1.56 µM (≈ 0.671 µg/mL).

In the case of `Cc1onc(C(=O)N2CCC(Nc3cc(=O)n(C)c4cc(F)c(F)cc34)CC2)c1C`, the MIC [4] is reported as under 25 µM and the MIC [1] is reported as 6.25 µM (≈ 2.6 µg/mL).

For `NNC(=O)c1ccncc1` [ISONIAZID], the MIC [1] was 0.45 µM (≈ 0.0617 µg/mL), the MIC [2] was 0.45 µM (≈ 0.0617 µg/mL) and the MIC [3] was 0.23 µM (≈ 0.0315 µg/mL).
